# Experimental data from PubChem BioAssay (NCI).
#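 Test compounds were applied to cells in 96-well plates for 48 hours at 5 doses. TGI marks complete inhibition of growth.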
# Assays:
# Test in all cases: NCI anticancer screen, dose series, 48 h
# 786-0 renal = tested on: 786-0 renal
# A549 NSCLC = tested on: A549 NSCLC
# CAKI-1 renal = tested on: CAKI-1 renal
# CCRF-CEM leukemia = tested on: CCRF-CEM leukemia
# COLO 205 colon = tested on: COLO 205 colon
# DU-145 prostate = tested on: DU-145 prostate
# EKVX NSCLC = tested on: EKVX NSCLC
# HCC-2998 colon = tested on: HCC-2998 colon
# HCT-15 colon = tested on: HCT-15 colon
# HL-60(TB) leukemia = tested on: HL-60(TB) leukemia
# HOP-62 NSCLC = tested on: HOP-62 NSCLC
# HT29 colon = tested on: HT29 colon
# IGROV1 ovarian = tested on: IGROV1 ovarian
# K-562 leukemia = tested on: K-562 leukemia
# KM12 colon = tested on: KM12 colon
# LOX IMVI melanoma = tested on: LOX IMVI melanoma
# M14 melanoma = tested on: M14 melanoma
# MALME-3M melanoma = tested on: MALME-3M melanoma
# MCF7 breast = tested on: MCF7 breast
# MDA-MB-231 breast = tested on: MDA-MB-231 breast
# MDA-N = tested on: MDA-N
# MOLT-4 leukemia = tested on: MOLT-4 leukemia
# NCI-H23 lung = tested on: NCI-H23 lung
# OVCAR-8 ovarian = tested on: OVCAR-8 ovarian
# PC-3 prostate = tested on: PC-3 prostate
# RPMI-8226 leukemia = tested on: RPMI-8226 leukemia
# RXF 393 renal = tested on: RXF 393 renal
# SF-268 CNS = tested on: SF-268 CNS
# SF-295 CNS = tested on: SF-295 CNS
# SK-MEL-28 melanoma = tested on: SK-MEL-28 melanoma
# SK-MEL-5 melanoma = tested on: SK-MEL-5 melanoma
# SK-OV-3 ovarian = tested on: SK-OV-3 ovarian
# SN12C renal = tested on: SN12C renal
# SNB-75 CNS = tested on: SNB-75 CNS
# SR leukemia = tested on: SR leukemia
# SW-620 colon = tested on: SW-620 colon
# T-47D breast = tested on: T-47D breast
# TK-10 renal = tested on: TK-10 renal
# UACC-257 melanoma = tested on: UACC-257 melanoma
# UACC-62 melanoma = tested on: UACC-62 melanoma
# A498 renal = tested on: A498 renal
# ACHN renal = tested on: ACHN renal
# BT-549 breast = tested on: BT-549 breast
# HCT-116 colon = tested on: HCT-116 colon
# HOP-92 NSCLC = tested on: HOP-92 NSCLC
# MDA-MB-435 = tested on: MDA-MB-435
# NCI-H226 lung = tested on: NCI-H226 lung
# NCI-H522 lung = tested on: NCI-H522 lung
# NCI/ADR-RES ovarian = tested on: NCI/ADR-RES ovarian
# OVCAR-3 ovarian = tested on: OVCAR-3 ovarian
# OVCAR-4 ovarian = tested on: OVCAR-4 ovarian
# OVCAR-5 ovarian = tested on: OVCAR-5 ovarian
# SF-539 CNS = tested on: SF-539 CNS
# SK-MEL-2 melanoma = tested on: SK-MEL-2 melanoma
# U251 CNS = tested on: U251 CNS
# UO-31 renal = tested on: UO-31 renal
structure (smiles),measurement,setting,value
CCCCCCCCCC[C@@H](OC(C)=O)[C@@H]1CC[C@@H]([C@@H]2CC[C@@H]([C@@H](O)CC#C/C=C/CCCCCCC[C@@]3(Sc4ccccc4)C[C@H](C)OC3=O)O2)O1,TGI,786-0 renal,> 10 µM
same,TGI,A549 NSCLC,> 10 µM
same,TGI,CAKI-1 renal,> 10 µM
same,TGI,CCRF-CEM leukemia,> 10 µM
same,TGI,COLO 205 colon,> 10 µM
same,TGI,DU-145 prostate,> 10 µM
same,TGI,EKVX NSCLC,> 10 µM
same,TGI,HCC-2998 colon,> 10 µM
same,TGI,HCT-15 colon,> 10 µM
same,TGI,HL-60(TB) leukemia,> 10 µM
same,TGI,HOP-62 NSCLC,> 10 µM
same,TGI,HT29 colon,> 10 µM
same,TGI,IGROV1 ovarian,> 10 µM
same,TGI,K-562 leukemia,> 10 µM
same,TGI,KM12 colon,> 10 µM
same,TGI,LOX IMVI melanoma,> 10 µM
same,TGI,M14 melanoma,> 10 µM
same,TGI,MALME-3M melanoma,> 10 µM
same,TGI,MCF7 breast,> 10 µM
same,TGI,MDA-MB-231 breast,> 10 µM
same,TGI,MDA-N,> 10 µM
same,TGI,MOLT-4 leukemia,> 10 µM
same,TGI,NCI-H23 lung,> 10 µM
same,TGI,OVCAR-8 ovarian,> 10 µM
same,TGI,PC-3 prostate,> 10 µM
same,TGI,RPMI-8226 leukemia,> 10 µM
same,TGI,RXF 393 renal,> 10 µM
same,TGI,SF-268 CNS,> 10 µM
same,TGI,SF-295 CNS,> 10 µM
same,TGI,SK-MEL-28 melanoma,> 10 µM
same,TGI,SK-MEL-5 melanoma,> 10 µM
same,TGI,SK-OV-3 ovarian,> 10 µM
same,TGI,SN12C renal,> 10 µM
same,TGI,SNB-75 CNS,> 10 µM
same,TGI,SR leukemia,> 10 µM
same,TGI,SW-620 colon,> 10 µM
same,TGI,T-47D breast,> 10 µM
same,TGI,TK-10 renal,> 10 µM
same,TGI,UACC-257 melanoma,> 10 µM
same,TGI,UACC-62 melanoma,> 10 µM
O=[N+]([O-])c1ccc(CSc2nncc3[nH]cnc23)cc1,TGI,786-0 renal,> 100 µM
same,TGI,A498 renal,> 100 µM
same,TGI,A549 NSCLC,> 100 µM
same,TGI,ACHN renal,> 100 µM
same,TGI,BT-549 breast,> 100 µM
same,TGI,CAKI-1 renal,> 100 µM
same,TGI,CCRF-CEM leukemia,> 100 µM
same,TGI,COLO 205 colon,> 100 µM
same,TGI,EKVX NSCLC,> 100 µM
same,TGI,HCC-2998 colon,> 100 µM
same,TGI,HCT-116 colon,> 100 µM
same,TGI,HCT-15 colon,> 100 µM
same,TGI,HL-60(TB) leukemia,> 100 µM
same,TGI,HOP-62 NSCLC,> 100 µM
same,TGI,HOP-92 NSCLC,67.1 µM
same,TGI,HT29 colon,> 100 µM
same,TGI,IGROV1 ovarian,> 100 µM
same,TGI,K-562 leukemia,> 100 µM
same,TGI,KM12 colon,> 100 µM
same,TGI,LOX IMVI melanoma,> 100 µM
same,TGI,M14 melanoma,> 100 µM
same,TGI,MALME-3M melanoma,> 100 µM
same,TGI,MCF7 breast,> 100 µM
same,TGI,MDA-MB-231 breast,> 100 µM
same,TGI,MDA-MB-435,> 100 µM
same,TGI,MDA-N,> 100 µM
same,TGI,MOLT-4 leukemia,> 100 µM
same,TGI,NCI-H226 lung,> 100 µM
same,TGI,NCI-H23 lung,> 100 µM
same,TGI,NCI-H522 lung,> 100 µM
same,TGI,NCI/ADR-RES ovarian,> 100 µM
same,TGI,OVCAR-3 ovarian,> 100 µM
same,TGI,OVCAR-4 ovarian,> 100 µM
same,TGI,OVCAR-5 ovarian,> 100 µM
same,TGI,OVCAR-8 ovarian,> 100 µM
same,TGI,PC-3 prostate,> 100 µM
same,TGI,RPMI-8226 leukemia,> 100 µM
same,TGI,SF-295 CNS,> 100 µM
same,TGI,SF-539 CNS,> 100 µM
same,TGI,SK-MEL-2 melanoma,> 100 µM
same,TGI,SK-MEL-28 melanoma,> 100 µM
same,TGI,SK-MEL-5 melanoma,> 100 µM
same,TGI,SK-OV-3 ovarian,> 100 µM
same,TGI,SN12C renal,> 100 µM
same,TGI,SNB-75 CNS,> 100 µM
same,TGI,SR leukemia,> 100 µM
same,TGI,SW-620 colon,> 100 µM
same,TGI,T-47D breast,> 100 µM
same,TGI,TK-10 renal,> 100 µM
same,TGI,U251 CNS,> 100 µM
same,TGI,UACC-257 melanoma,> 100 µM
same,TGI,UACC-62 melanoma,> 100 µM
same,TGI,UO-31 renal,> 100 µM
